Reference: patent US6555574B1, “4-oxybenzopyran derivative” (Nissan Chemical Industries, Ltd., priority 1999, dated 2003)

| SMILES | melting point |
| --- | --- |
| CCCO[C@H]1c2cc(NC(=O)Cc3ccc(OC)cc3)c([N+](=O)[O-])cc2OC(C)(C)[C@@H]1O (relative stereo) [Synthesis example 4, (3R*, 4S*)-3,4-dihydro-2,2-dimethyl-4-propoxy-6-(4-methoxyphenylacetylamino)-7-nitro-2H-1-benzopyran-3-ol] | 115 to 116 °C |
| COc1ccc(CC(=O)Nc2cc3c(cc2[N+](=O)[O-])OC(C)(C)[C@H](O)[C@H]3Oc2ccccc2)cc1 (relative stereo) [Synthesis example 7, Trans-3,4-dihydro-2,2-dimethyl-6-(4-methoxyphenyl)acetylamino-7-nitro-4-phenyloxy-2H-1-benzopyran-3-ol] | 178 to 178.6 °C |
| COc1ccc(CC(=O)Nc2cc3c(cc2[N+](=O)[O-])OC(C)(C)[C@H](O)[C@H]3OCCc2ccccc2)cc1 [Synthesis example 6, Trans-3,4-dihydro-2,2-dimethyl-6-(4-methoxyphenyl)acetylamino-7-nitro-4-(2-phenylethoxy)-2H-1-benzoypyran-3-ol] | 125.2 to 125.5 °C |
| COc1ccc(CC(=O)Nc2cc3c(cc2[N+](=O)[O-])OC(C)(C)[C@H](O)[C@H]3OCc2ccccc2)cc1 [Synthesis example 8] | 117.8 to 119.1 °C |
